Data on 26 molecules can be found in US8686150B2 (Sanofi, priority 2011, dated 2014).

This experiment has as its target T1, human full-length recombinant PKC βII (Homo sapiens, UniProt P05771).
T1 construct: Active human full-length recombinant PKC βII; purchased Invitrogen GmbH, Darmstadt, Germany
Nature of the experiment: Determination of PKC βII inhibition (Caliper mobility-shift kinase assay, Fluorescein-RFARKGSLRQKNV peptide substrate). To be noted: example compounds at a final concentration of 1.14 μM (±0.15 μM). It counts as biochemical. As for the experimental part: Determination of PKC βII Inhibition
PKC βII Inhibition was Determined According to the Following Protocol:
Active human full-length recombinant PKC βII and the peptide substrate, Fluorescein-RFARKGSLRQKNV, were purchased from Invitrogen GmbH, Darmstadt, Germany. Adenosine-5′-triphosphate (ATP), bovine serum albumine (BSA), dimethylsulphoxide (DMSO), 4-(2-hydroxyethyl)piperazine-1-ethanesulfonic acid (Hepes), Triton X-100, 1,2-Dioleoyl-sn-glycerol (DAG), L-G-Phosphatidyl-L-serine (PS), calcium chloride (CaCl2), and Pluronic F-68 were purchased from Sigma-Aldrich, Munich, Germany. Magnesium chloride, 1 M sodium hydroxide solution, 1M hydrochloric acid solution and EDTA were obtained from Merck Biosciences, Darmstadt, Germany.
Test compounds were diluted to three times the test concentration in buffer 1 (30 mM Hepes-NaOH, pH 7.4, 0.01% Pluronic F-68 and 3% (v/v) DMSO). The PKC enzyme was diluted to a concentration of 30 ng/ml in buffer 2 (30 mM Hepes-NaOH, pH 7.4, 15 mM MgCl2, 150 μM CaCl2, 150 μg/ml PS, 60 μg/ml DAG, and 0.045% (w/v) Triton X-100). The peptide substrate and ATP were diluted to concentrations of 3 μM and 120 μM, respectively, in buffer 2. Two μl of the compound solution were mixed with 2 μl of the diluted enzyme in a 384-well small volume microtiter plate (Greiner, Bio-One, Frickenhausen, Germany), and the kinase reaction was initiated by addition of 2 μl of the solution containing peptide substrate and ATP. After 60 min incubation at 32° C., the reaction was stopped by addition of 20 μl of a solution containing 130 mM Hepes-NaOH, pH 7.4. 0.0195% (v/v) Brij-35, 6.5 mM EDTA. 0.13% chip coating reagent 3 (Caliper Lifescience Inc, Hopkinton, Mass.) and 6.5% (v/v) DMSO. Phosphorylation of the substrate peptide was then detected on a Caliper 3000 instrument essentially as described by Pommereau et al (J. Biomol. Screening 2004, 9(5), 409-416). Separation conditions were as follows: Pressure −0.8 psi, upstream voltage −3000 V, downstream voltage −800 V. Positive controls (buffer 1 instead of compound) and negative controls (buffer 1 instead of compound and buffer 2 instead of kinase solution) were run in parallel on each plate. Fractional turnover (R) was determined as the height of the peak of the phosphorylated peptide product divided by the sum of the unphosphorylated substrate and phosphorylated product peak heights. Percent-inhibition values for the test compounds were determined using the formula % Inhibition=100*(1−(Rcompound−Rnegative control)/(Rpositive control−Rnegative control).
In the following table % inhibition values observed with example compounds at a final concentration of 1.14 μM (±0.15 μM) are listed: […]

T1 sequence (P05771 1-673 isoform P05771-2): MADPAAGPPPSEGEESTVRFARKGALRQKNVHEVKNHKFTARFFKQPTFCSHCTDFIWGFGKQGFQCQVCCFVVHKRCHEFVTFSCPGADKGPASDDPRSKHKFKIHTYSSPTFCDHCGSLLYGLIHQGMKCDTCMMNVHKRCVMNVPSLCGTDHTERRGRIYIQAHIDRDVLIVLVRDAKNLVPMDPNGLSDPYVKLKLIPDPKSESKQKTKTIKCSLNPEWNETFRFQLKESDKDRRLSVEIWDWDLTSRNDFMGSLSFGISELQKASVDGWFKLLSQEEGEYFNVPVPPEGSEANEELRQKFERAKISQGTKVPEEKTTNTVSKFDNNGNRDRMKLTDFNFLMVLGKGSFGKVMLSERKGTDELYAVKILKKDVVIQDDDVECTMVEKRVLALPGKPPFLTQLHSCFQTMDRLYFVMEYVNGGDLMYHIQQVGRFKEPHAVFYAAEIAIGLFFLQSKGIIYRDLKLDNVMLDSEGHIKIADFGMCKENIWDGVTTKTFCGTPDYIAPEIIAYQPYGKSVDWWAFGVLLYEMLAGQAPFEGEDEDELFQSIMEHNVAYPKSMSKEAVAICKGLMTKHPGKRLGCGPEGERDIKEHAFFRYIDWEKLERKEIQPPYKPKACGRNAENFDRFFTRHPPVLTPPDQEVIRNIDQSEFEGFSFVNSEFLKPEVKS

Take `Cc1n[nH]c2nc(-c3ccc(O)cc3)cc(C(=O)N3CCNC(c4ccccc4)C3)c12` (single isomer, unassigned) [Example 456, [6-(4-Hydroxy-phenyl)-3-methyl-1H-pyrazolo[3,4-b]pyridin-4-yl]-(3-phenyl-piperazin-1-yl)-methanone]: the “% Inhibition” value was found to be 88%. Turning to `Cc1n[nH]c2nc(-c3ccc(O)cc3)cc(C(=O)N3CCNC(c4ccccc4)C3)c12` (single isomer, unassigned) [Example 457, [6-(4-Hydroxy-phenyl)-3-methyl-1H-pyrazolo[3,4-b]pyridin-4-yl]-(3-phenyl-piperazin-1-yl)-methanone], the “% Inhibition” value is listed as 63%. Still for that read-out and setting: for `Cc1n[nH]c2nc(-c3ccc(O)cc3F)cc(C(=O)N3C[C@@H](c4ccccc4)NC[C@@H]3C)c12` (single isomer, unassigned) [Example 460, [6-(2-Fluoro-4-hydroxy-phenyl)-3-methyl-1H-pyrazolo[3,4-b]pyridin-4-yl]-(trans-2-methyl-5-phenyl-piperazin-1-yl)-methanone] the value was 61%; for `Cc1n[nH]c2nc(-c3ccc(O)cc3F)cc(C(=O)N3C[C@@H](c4ccccc4)NC[C@@H]3C)c12` (single isomer, unassigned) [Example 461, [6-(2-Fluoro-4-hydroxy-phenyl)-3-methyl-1H-pyrazolo[3,4-b]pyridin-4-yl]-(trans-2-methyl-5-phenyl-piperazin-1-yl)-methanone], 99%.

Take `Cc1n[nH]c2nc(-c3ccc(O)cc3)cc(C(=O)NC34CNCC3C4)c12` (stereo in doubt) [Example 205, 6-(4-Hydroxy-phenyl)-3-methyl-1H-pyrazolo[3,4-b]pyridine-4-carboxylic acid [(R)-3-azabicyclo[3.1.0]hexan-1-yl]-amide]: the inhibition at 1.14 µM worked out at 92%.

As to `Cc1n[nH]c2nc(-c3ccc(O)c(F)c3)cc(C(=O)N[C@@H]3[C@H]4CC[C@H](C4)[C@H]3CN)c12` (stereo in doubt) [Example 311, 6-(3-Fluoro-4-hydroxy-phenyl)-3-methyl-1H-pyrazolo[3,4-b]pyridine-4-carboxylic acid (3-aminomethyl-bicyclo[2.2.1]hept-2-yl)-amide], the inhibition at 1.14 µM came to 74%. `Cc1n[nH]c2nc(-c3ccc(O)c(F)c3)cc(C(=O)NC3CN4CCC3CC4)c12` (stereo in doubt) [Example 317, (S)-6-(3-Fluoro-4-hydroxy-phenyl)-3-methyl-1H-pyrazolo[3,4-b]pyridine-4-carboxylic acid (1-aza-bicyclo[2.2.2]oct-3-yl)-amide]: the inhibition at 1.14 µM is 68%. On the same count and under the same terms, for `Cc1n[nH]c2nc(-c3ccc(O)c(F)c3)cc(C(=O)NC3CN4CCC3CC4)c12` (stereo in doubt) [Example 361, (R)-6-(3-Fluoro-4-hydroxy-phenyl)-3-methyl-1H-pyrazolo[3,4-b]pyridine-4-carboxylic acid (1-aza-bicyclo[2.2.2]oct-3-yl)-amide] the value was 50%. `Cc1n[nH]c2nc(-c3ccc(O)cc3)cc(C(=O)N3CCNCC3(C)c3ccccc3)c12` (centres unmarked) [Example 1, [6-(4-Hydroxy-phenyl)-3-methyl-1H-pyrazolo[3,4-b]pyridin-4-yl]-(2-methyl-2-phenyl-piperazin-1-yl)-methanone]: the inhibition at 1.14 µM is 98%. The same measure, in the same setting: for `CCc1n[nH]c2nc(-c3ccc(O)c(F)c3)cc(C(=O)N3CCNCC3)c12` [Example 2, [3-Ethyl-6-(3-fluoro-4-hydroxy-phenyl)-1H-pyrazolo[3,4-b]pyridin-4-yl]-piperazin-1-yl-methanone] the value was 69%. The same measure, in the same setting: under `CCc1n[nH]c2nc(-c3ccc(O)cc3)cc(C(=O)N3CCNCC3)c12` [Example 3, [3-Ethyl-6-(4-hydroxy-phenyl)-1H-pyrazolo[3,4-b]pyridin-4-yl]-piperazin-1-yl-methanone] stands 82%. For the molecule `CCCc1n[nH]c2nc(-c3ccc(O)cc3)cc(C(=O)N3CCNCC3)c12` [Example 4], the inhibition at 1.14 µM came out at 86%. For `O=C(c1cc(-c2ccc(O)cc2)nc2[nH]nc(C(F)(F)F)c12)N1CCNCC1` [Example 5, [6-(4-Hydroxy-phenyl)-3-trifluoromethyl-1H-pyrazolo[3,4-b]pyridin-4-yl]-piperazin-1-yl-methanone], the inhibition at 1.14 µM turned out to be 74%. Same read-out and setting: under `Cc1n[nH]c2nc(-c3ccc(O)cc3Cl)cc(C(=O)N3CCNCC3)c12` [Example 6, [6-(2-Chloro-4-hydroxy-phenyl)-3-methyl-1H-pyrazolo[3,4-b]pyridin-4-yl]-piperazin-1-yl-methanone] stands 97%; under `Cc1n[nH]c2nc(-c3ccc(O)c(F)c3)cc(C(=O)N3CCNCC3)c12` [Example 7, [6-(3-Fluoro-4-hydroxy-phenyl)-3-methyl-1H-pyrazolo[3,4-b]pyridin-4-yl]-piperazin-1-yl-methanone], 91%. On the same count and under the same terms, for `Cc1cc(-c2cc(C(=O)N3CCNCC3)c3c(C)n[nH]c3n2)ccc1O` [Example 8, [6-(4-Hydroxy-3-methyl-phenyl)-3-methyl-1H-pyrazolo[3,4-b]pyridin-4-yl]-piperazin-1-yl-methanone] the value was 32%; for `Cc1n[nH]c2nc(-c3ccc(O)c(Cl)c3)cc(C(=O)N3CCNCC3)c12` [Example 9, [6-(3-Chloro-4-hydroxy-phenyl)-3-methyl-1H-pyrazolo[3,4-b]pyridin-4-yl]-piperazin-1-yl-methanone], 41%; for `COc1cc(-c2cc(C(=O)N3CCNCC3)c3c(C)n[nH]c3n2)ccc1O` [Example 10, [6-(4-Hydroxy-3-methoxy-phenyl)-3-methyl-1H-pyrazolo[3,4-b]pyridin-4-yl]-piperazin-1-yl-methanone], 29%. On the same count and under the same terms, under `Cc1n[nH]c2nc(-c3ccc(O)cc3F)cc(C(=O)N3CCNCC3)c12` [Example 11, [6-(2-Fluoro-4-hydroxy-phenyl)-3-methyl-1H-pyrazolo[3,4-b]pyridin-4-yl]-piperazin-1-yl-methanone] stands 101%; under `Cc1n[nH]c2nc(-c3cc(F)c(O)c(F)c3)cc(C(=O)N3CCNCC3)c12` [Example 12, [6-(3,5-Difluoro-4-hydroxy-phenyl)-3-methyl-1H-pyrazolo[3,4-b]pyridin-4-yl]-piperazin-1-yl-methanone], 61%. As for `Cc1cc(O)ccc1-c1cc(C(=O)N2CCNCC2)c2c(C)n[nH]c2n1` [Example 13, [6-(4-Hydroxy-2-methyl-phenyl)-3-methyl-1H-pyrazolo[3,4-b]pyridin-4-yl]-piperazin-1-yl-methanone], the inhibition at 1.14 µM was 96%.

In the case of `COc1cc(O)ccc1-c1cc(C(=O)N2CCNCC2)c2c(C)n[nH]c2n1` [Example 14, [6-(4-Hydroxy-2-methoxy-phenyl)-3-methyl-1H-pyrazolo[3,4-b]pyridin-4-yl]-piperazin-1-yl-methanone], the inhibition at 1.14 µM was determined as 94%. For `CCOc1cc(-c2cc(C(=O)N3CCNCC3)c3c(C)n[nH]c3n2)ccc1O` [Example 15, [6-(3-Ethoxy-4-hydroxy-phenyl)-3-methyl-1H-pyrazolo[3,4-b]pyridin-4-yl]-piperazin-1-yl-methanone], the inhibition at 1.14 µM came to 35%. The same measure, in the same setting: for `Cc1n[nH]c2nc(-c3cc(F)c(O)c(F)c3)cc(C(=O)N3CCNC[C@@H]3C)c12` [Example 16, [6-(3,5-Difluoro-4-hydroxy-phenyl)-3-methyl-1H-pyrazolo[3,4-b]pyridin-4-yl]-((S)-2-methyl-piperazin-1-yl)-methanone] the value was 69%; for `Cc1cc(O)ccc1-c1cc(C(=O)N2CCNC[C@@H]2C)c2c(C)n[nH]c2n1` [Example 17, [6-(4-Hydroxy-2-methyl-phenyl)-3-methyl-1H-pyrazolo[3,4-b]pyridin-4-yl]-((S)-2-methyl-piperazin-1-yl)-methanone], 95%; for `COc1cc(O)ccc1-c1cc(C(=O)N2CCNC[C@@H]2C)c2c(C)n[nH]c2n1` [Example 18, [6-(4-Hydroxy-2-methoxy-phenyl)-3-methyl-1H-pyrazolo[3,4-b]pyridin-4-yl]-((S)-2-methyl-piperazin-1-yl)-methanone], 94%.

One may read the % Inhibition as the relative decrease from the control value, in per cent. The inhibition is the relative decrease from the control value, in per cent.
